From patent publication US20250313548A1 (Actio Biosciences, Inc., priority 2023, published 2025) come the findings set out here.

The IC50 is the concentration that inhibits the measured activity by half. Read a low IC50 as greater potency.

The target in the test is human, KCNT1 (Homo sapiens (Human), UniProt Q5JUK3). In words: FLIPR Tl/K Flux Assay. The test is classed as cell-based. The note with it: HEK293 cells stably expressing human KCNT1; Tl+ flux stimulated with EC80 of agonist Loxapine. The procedure, abridged: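 Inhibition values come from a Hill-equation fit of % inhibition versus log concentration, using normalized fluorescence (Fmax/Fmin) over a 160 s read. The read followed stimulation with Tl+ plus EC80 agonist loxapine after 30 min compound pre-incubation at 25 °C. Cells were KCNT1-expressing HEK293, dye-loaded 1 h in pH 7.4 HEPES/HBSS with 5 mM probenecid.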
human, KCNT1, sequence (Q5JUK3 whole entry): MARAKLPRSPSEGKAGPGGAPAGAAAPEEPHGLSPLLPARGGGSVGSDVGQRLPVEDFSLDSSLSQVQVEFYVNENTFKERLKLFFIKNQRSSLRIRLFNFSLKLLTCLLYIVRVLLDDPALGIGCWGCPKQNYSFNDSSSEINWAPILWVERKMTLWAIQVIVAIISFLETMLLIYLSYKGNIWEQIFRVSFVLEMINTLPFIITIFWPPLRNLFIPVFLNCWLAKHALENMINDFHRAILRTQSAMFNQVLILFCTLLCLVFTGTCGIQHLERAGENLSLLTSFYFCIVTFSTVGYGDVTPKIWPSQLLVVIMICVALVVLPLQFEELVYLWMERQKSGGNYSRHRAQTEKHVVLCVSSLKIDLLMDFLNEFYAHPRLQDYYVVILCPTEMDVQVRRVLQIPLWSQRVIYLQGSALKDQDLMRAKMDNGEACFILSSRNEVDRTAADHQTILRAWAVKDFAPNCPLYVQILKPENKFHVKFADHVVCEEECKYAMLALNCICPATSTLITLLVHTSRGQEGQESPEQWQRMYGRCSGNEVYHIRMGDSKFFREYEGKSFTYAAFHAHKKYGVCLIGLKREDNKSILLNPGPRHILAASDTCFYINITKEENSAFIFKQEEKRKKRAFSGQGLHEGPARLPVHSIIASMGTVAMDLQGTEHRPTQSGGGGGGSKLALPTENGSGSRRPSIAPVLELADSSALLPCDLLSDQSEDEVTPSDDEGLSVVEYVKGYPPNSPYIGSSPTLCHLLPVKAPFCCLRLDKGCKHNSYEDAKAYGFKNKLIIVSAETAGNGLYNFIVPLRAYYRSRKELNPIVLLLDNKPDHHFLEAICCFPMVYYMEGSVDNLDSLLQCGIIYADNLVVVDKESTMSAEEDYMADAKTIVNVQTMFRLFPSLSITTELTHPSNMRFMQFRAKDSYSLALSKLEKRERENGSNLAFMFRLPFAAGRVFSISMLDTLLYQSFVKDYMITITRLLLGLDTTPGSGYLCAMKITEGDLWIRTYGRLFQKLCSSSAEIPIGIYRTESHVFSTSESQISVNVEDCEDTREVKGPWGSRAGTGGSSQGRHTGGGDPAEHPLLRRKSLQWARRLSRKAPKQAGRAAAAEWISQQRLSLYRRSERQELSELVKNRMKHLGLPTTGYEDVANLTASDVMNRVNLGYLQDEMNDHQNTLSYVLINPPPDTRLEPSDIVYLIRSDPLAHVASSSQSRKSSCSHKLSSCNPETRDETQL
As for `Cn1nc(C(F)(F)F)cc1C(=O)N[C@H]1CCn2nc(-c3ccnc(OC(F)F)c3)cc21` [Compound I-233a, (S)-N-(2-(2-(Difluoromethoxy)pyridin-4-yl)-5,6-dihydro-4H-pyrrolo[1,2-b]pyrazol-4-yl)-1-methyl-3-(trifluoromethyl)-1H-pyrazole-5-carboxamide], the IC50 was under 250 nM.
The molecule `CC(C)(C)C(=O)N[C@@H]1CCc2nn(-c3ccnc(C(F)(F)F)c3)cc21` [Compound I-104b] returned an IC50 of over 1000 nM.
In the case of `COc1cc(-c2cc3n(n2)CC[C@@H]3NC(=O)c2cnn(C(F)(F)F)c2)c(F)cn1` [Compound I-577a, (S)-N-(2-(5-Fluoro-2-methoxypyridin-4-yl)-5,6-dihydro-4H-pyrrolo[1,2-b]pyrazol-4-yl)-1-(trifluoromethyl)-1H-pyrazole-4-carboxamide] it was under 250 nM.
The molecule `CC(C)(C)C(=O)N[C@H]1CCc2nn(-c3ccnc(C(F)(F)F)c3)cc21` [Compound I-104a] displayed an IC50 of 500 to 1000 nM.
As to `COc1cc(-n2cc3c(n2)CC[C@@H]3NC(=O)c2ccc(F)c(C#N)c2)ccn1` [Compound I-259a, (S)-3-Cyano-4-fluoro-N-(2-(2-methoxypyridin-4-yl)-2,4,5,6-tetrahydrocyclopenta[c]pyrazol-4-yl)benzamide], the IC50 is under 250 nM.
`COc1cc(-c2cc3n(n2)CC[C@@H]3NC(=O)c2nc(C)nn2C)ccn1` [Compound I-230a, (S)-N-(2-(2-Methoxypyridin-4-yl)-5,6-dihydro-4H-pyrrolo[1,2-b]pyrazol-4-yl)-1,3-dimethyl-1H-1,2,4-triazole-5-carboxamide] displayed an IC50 of over 1000 nM.
In the case of `COc1cc(-n2cc3c(n2)CCCC3NC(=O)c2cc(C(F)(F)F)nn2C)ccn1` (racemic) [Compound I-25, (rac)-N-(2-(2-Methoxypyridin-4-yl)-4,5,6,7-tetrahydro-2H-indazol-4-yl)-1-methyl-3-(trifluoromethyl)-1H-pyrazole-5-carboxamide], the IC50 was 250 to 500 nM.
The same measure for `O=C(N[C@@H]1CCc2nn(-c3ccnc(C(F)(F)F)c3)cc21)c1ccccc1` [Compound I-91b]: over 1000 nM; for `Cc1cc(Cl)cc(C(=O)N[C@@H]2CCc3nn(-c4ccnc(C(F)(F)F)c4)cc32)c1` [Compound I-98b]: over 1000 nM.
`COc1cc(-c2cc3n(n2)CCC[C@@H]3NC(=O)c2cncc(C(F)(F)F)c2)ccn1` [Compound I-357a] displayed a half-maximal inhibitory concentration (IC50) of under 250 nM.
In the case of `CCOc1cc(F)cc(C(=O)N[C@H]2CCCn3nc(-c4ccnc(C(F)(F)F)c4)cc32)c1` [Compound I-579a] it was under 250 nM.
The same measure for `Cn1nc(C(F)(F)F)cc1C(=O)N[C@H]1CCCc2oc(-c3ccnc(C(F)(F)F)c3)nc21` [Compound I-84a]: under 250 nM.
In the case of `O=C(N[C@H]1CCc2nn(-c3ccnc(C(F)(F)F)c3)cc21)c1cc(Cl)cc(Cl)c1` [Compound I-99a] it was under 250 nM; in that of `Cn1nc(C(F)(F)F)cc1C(=O)NC1CCc2ccc(-c3ccnc(C(F)(F)F)c3)nc21` (stereo not drawn) [Compound I-43], over 1000 nM; in that of `O=C(N[C@H]1CCCc2oc(-c3ccnc(C(F)(F)F)c3)nc21)c1cnn(C(F)(F)F)c1C(F)(F)F` [Compound I-531a, (S)-1,5-bis(trifluoromethyl)-N-(2-(2-(trifluoromethyl)pyridin-4-yl)-4,5,6,7-tetrahydrobenzo[d]oxazol-4-yl)-1H-pyrazole-4-carboxamide], under 250 nM.
Regarding `Cn1nc(C(F)(F)F)cc1C(=O)N[C@H]1CCc2nn(-c3ccnc(C(C)(C)O)c3)cc21` [Compound I-76a], the IC50 was over 1000 nM.
The same measure for `O=C(N[C@H]1CCCc2nc(-c3ccnc(C4CC4)c3)oc21)c1ccnc(OC(F)(F)F)c1` [Compound I-169a, (S)-N-(2-(2-Cyclopropylpyridin-4-yl)-4,5,6,7-tetrahydrobenzo[d]oxazol-7-yl)-2-(trifluoromethoxy)isonicotinamide]: under 250 nM; for `O=C(N[C@H]1CCn2nc(-c3ccnc(C(F)(F)F)c3)cc21)[C@@H]1C[C@@H]1C(F)(F)F` [I-487^, (1R,2S)-2-(trifluoromethyl)-N—((S)-2-(2-(trifluoromethyl)pyridin-4-yl)-5,6-dihydro-4H-pyrrolo[1,2-b]pyrazol-4-yl)cyclopropane-1-carboxamide]: under 250 nM.
The same measure for `CN(C(=O)c1cc(C(F)(F)F)nn1C)[C@H]1CCCc2nn(-c3ccnc(C(F)(F)F)c3)cc21` [Compound I-37a, (S)—N,1-Dimethyl-3-(trifluoromethyl)-N-(2-(2-(trifluoromethyl)pyridin-4-yl)-4,5,6,7-tetrahydro-2H-indazol-4-yl)-1H-pyrazole-5-carboxamide]: over 1000 nM.
`COc1cc(-c2nc3c(o2)[C@@H](NC(=O)c2cc(Cl)cc(Cl)c2)CCC3)ccn1` [Compound I-150a, (S)-3,5-Dichloro-N-(2-(2-methoxypyridin-4-yl)-4,5,6,7-tetrahydrobenzo[d]oxazol-7-yl)benzamide] yielded an IC50 of under 250 nM.
`Cc1cc(-c2cc3n(n2)CCC[C@@H]3NC(=O)c2cc(C(F)(F)F)nn2C)cc(C(F)(F)F)n1` [Compound I-432a]: the IC50 was under 250 nM.
With `Cn1nc(C#N)cc1C(=O)N[C@H]1CCCc2nn(-c3ccnc(C(F)(F)F)c3)cc21` [Compound I-113a], the IC50 lay in the range of 250 to 500 nM.
`CC(C)Oc1cc(C(=O)N[C@H]2CCCn3nc(-c4ccnc(C(F)(F)F)c4)cc32)n(C)n1` [Compound I-367a] had an IC50 of under 250 nM.
`Cn1nc(C2CC2)cc1C(=O)N[C@@H]1CCCCc2nn(-c3ccnc(C(F)(F)F)c3)cc21` [Compound I-369b] returned a 50% inhibitory concentration (IC50) of over 1000 nM.
On to `O=C(N[C@H]1CCn2nc(-c3cc(C(F)(F)F)ncc3F)cc21)C12CC(CC(F)F)(C1)C2` [Compound I-558a, (S)-3-(2,2-Difluoroethyl)-N-(2-(5-fluoro-2-(trifluoromethyl)pyridin-4-yl)-5,6-dihydro-4H-pyrrolo[1,2-b]pyrazol-4-yl)bicyclo[1.1.1]pentane-1-carboxamide], for which the IC50 was under 250 nM.
Molecule `COc1cc(-c2cc3n(n2)CCC[C@@H]3NC(=O)c2cc(C#N)cc(C(F)(F)F)c2)ccn1` [Compound I-284a, (S)-3-Cyano-N-(2-(2-methoxypyridin-4-yl)-4,5,6,7-tetrahydropyrazolo[1,5-a]pyridin-4-yl)-5-(trifluoromethyl)benzamide] registered an IC50 of under 250 nM.
In the case of `N#Cc1cc(F)cc(C(=O)N[C@H]2CCc3nn(-c4ccnc(C(F)(F)F)c4)cc32)c1` [Compound I-455a] it was under 250 nM.
On to `CC(F)(F)c1cc(-c2nc3c(o2)CCC[C@@H]3NC(=O)c2cccc(F)c2)ccn1` [Compound I-508a, (S)—N-(2-(2-(1,1-difluoroethyl)pyridin-4-yl)-4,5,6,7-tetrahydrobenzo[d]oxazol-4-yl)-3-fluorobenzamide], for which the IC50 is under 250 nM.
In turn, `Cn1nc(C(F)(F)F)cc1C(=O)N[C@H]1CCc2nn(-c3ccnc(C4(C)CC4)c3)cc21` [Compound I-75a, (S)-1-Methyl-N-(2-(2-(1-methylcyclopropyl)pyridin-4-yl)-2,4,5,6-tetrahydrocyclopenta[c]pyrazol-4-yl)-3-(trifluoromethyl)-1H-pyrazole-5-carboxamide] displayed an IC50 of under 250 nM.
In the case of `Cn1nc(C(F)(F)F)cc1C(=O)N[C@H]1CCCc2nc(-c3ccnc(C(F)(F)F)c3)ccc21` (single isomer, unassigned) [I-149*] it was under 250 nM; in that of `Cc1nn(C)c(C(=O)N[C@H]2CCCn3nc(-c4ccnc(C(F)(F)F)c4)cc32)c1F` [Compound I-417a], under 250 nM; in that of `Cc1cnc(C(F)(F)F)cc1-c1cc2n(n1)CC[C@H]2NC(=O)c1nc(C(F)(F)F)nn1C` [Compound I-482b], 500 to 1000 nM.
In the case of `COc1cc(-c2cc3n(n2)CC[C@@H]3NC(=O)c2cc(F)cc(C#N)c2)ccn1` [Compound I-301a, (S)-3-Cyano-5-fluoro-N-(2-(2-methoxypyridin-4-yl)-5,6-dihydro-4H-pyrrolo[1,2-b]pyrazol-4-yl)benzamide] it was under 250 nM; in that of `O=C(N[C@H]1CCCn2nc(-c3ccnc(C(F)(F)F)c3)cc21)c1cncc(C(F)(F)F)n1` [Compound I-437a], under 250 nM; in that of `Cn1nc(C(F)(F)F)cc1C(=O)N[C@@H]1CCCc2ncc(-c3ccnc(C(F)(F)F)c3)cc21` [Compound I-383b], over 1000 nM.
For the molecule `CC(C)c1cc(-n2cc3c(n2)CC[C@@H]3NC(=O)c2cc(C(F)(F)F)nn2C)ccn1` [Compound I-70a], the IC50 was under 250 nM.
In the case of `COc1cc(-n2cc3c(n2)CCCC[C@@H]3NC(=O)c2cccc(C)c2)ccn1` [Compound I-376a] it was under 250 nM.
As for `N#Cc1cc(C(=O)N[C@H]2CCCn3nc(-c4ccnc(C(F)(F)F)c4)cc32)ccn1` [Compound I-328a, (S)-2-Cyano-N-(2-(2-(trifluoromethyl)pyridin-4-yl)-4,5,6,7-tetrahydropyrazolo[1,5-a]pyridin-4-yl)isonicotinamide], the half-inhibitory concentration (IC50) was under 250 nM.
Take `N#Cc1cc(Cl)cc(C(=O)N[C@H]2CCCn3nc(-c4ccnc(C(F)(F)F)c4)cc32)c1` [Compound I-458a]: the IC50 is under 250 nM.
With `COc1cc(C(=O)N[C@H]2CCn3nc(-c4cc(OC)ncc4F)cc32)ccn1` [Compound I-560a, (S)-N-(2-(5-Fluoro-2-methoxypyridin-4-yl)-5,6-dihydro-4H-pyrrolo[1,2-b]pyrazol-4-yl)-2-methoxyisonicotinamide], the half-maximal inhibitory concentration (IC50) is under 250 nM.
On to `Cn1nc(C(F)(F)F)cc1C(=O)N[C@H]1CCCc2nn(-c3ccnc(C4CC4)c3)cc21` [Compound I-48a], for which the IC50 is under 250 nM.
In the case of `Cn1nc(C(F)(F)F)nc1C(=O)N[C@H]1CCCCn2nc(-c3ccnc(C(F)(F)F)c3)cc21` [Compound I-324a, (S)-1-Methyl-3-(trifluoromethyl)-N-(2-(2-(trifluoromethyl)pyridin-4-yl)-5,6,7,8-tetrahydro-4H-pyrazolo[1,5-a]azepin-4-yl)-1H-1,2,4-triazole-5-carboxamide] it was under 250 nM.
